In patent publication US8828985B2, “Carbamate and urea inhibitors of 11-beta-hydroxysteroid dehydrogenase 1” (Vitae Pharmaceuticals, Inc., priority 2008, dated 2014):
Like-named read-outs stand apart in the source and are kept apart here.

Target: human 11β-HSD1 (Homo sapiens, UniProt P28845)
Test: biochemical
Details: for inhibition at 0.1 µM / inhibition at 0.111 µM: 1.5 h; for IC50: Biological Test Example 2 IC50 Range, microsomes from CHO cells overexpressing human 11β-HSD1, SPA
[1] = read-out: Biological Test Example 2 Average % inhibition at 100 nm, at 100 nm
[2] = read-out: Biological Test Example 2 Average % inhibition at 111 nm, at 111 nm

Chain of human 11β-HSD1 (P28845 whole entry): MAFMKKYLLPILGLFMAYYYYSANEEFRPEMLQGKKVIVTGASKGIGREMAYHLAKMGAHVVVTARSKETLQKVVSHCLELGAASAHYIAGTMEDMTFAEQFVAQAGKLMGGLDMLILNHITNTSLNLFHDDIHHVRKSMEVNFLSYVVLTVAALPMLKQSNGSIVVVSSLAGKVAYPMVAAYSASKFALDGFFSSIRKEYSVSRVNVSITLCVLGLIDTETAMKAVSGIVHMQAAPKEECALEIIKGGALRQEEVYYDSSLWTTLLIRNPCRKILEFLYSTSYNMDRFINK
Method: All reactions are carried out at room temperature in 96 well clear flexible PET Microbeta plates (PerkinElmer). […] The reaction is stopped by adding 50 μl of the SPA beads suspension containing 10 μM 18β-glycyrrhetinic acid, 5 mg/ml protein A coated YSi SPA beads (GE Healthcare) and 3.3 μg/ml of anti-cortisol antibody (East Coast Biologics) in Superblock buffer (Bio-Rad). The plates are then shaken for 120 minutes at room temperature, and the SPA signal corresponding to [^3H]cortisol is measured on a Microbeta plate reader.

`N#Cc1ccc(N[C@@H]2CCN(C(=O)OC3C4CC5CC3CC(C(=O)NC3CC3)(C5)C4)C2)nc1` (single isomer, unassigned) [Example 118 Isomer 1] showed an inhibition at 0.1 µM [1] of 9.1% and an IC50 of over 0.1 µM.
For `CC(C)(C)OC(=O)N1C[C@@H]2C[C@H]1CN2C(=O)OC1C2CC3CC(C2)CC1C3` (stereo partly drawn) [Example 7, (1S,4S)-2-tert-butyl 5-(2-adamantyl)-2,5-diazabicyclo[2.2.1]heptane-2,5-dicarboxylate], the IC50 was under 0.1 µM.
`CC(C)(C)OC(=O)NC1(c2ccccc2)CCN(C(=O)OC2C3CC4CC(C3)CC2C4)C1` (stereo not shown) [Example 13, (2-adamantyl) 3-(tert-butoxycarbonylamino)-3-phenylpyrrolidine-1-carboxylate] showed an inhibition at 0.1 µM [1] of 87.7% and an IC50 of under 0.1 µM.
Work on `CC(C)(C)OC(=O)N(CCO)[C@@H]1CCN(C(=O)O[C@H]2C3CC4CC2C[C@](C(N)=O)(C4)C3)C1` [Example 28, (R)-(1-carbamoyl-4-adamantyl) 3-(tert-butoxycarbonyl(2-hydroxyethyl)amino)pyrrolidine-1-carboxylate] yielded an IC50 of under 0.1 µM.
With `Cc1cc(N[C@@H]2CCN(C(=O)O[C@H]3C4CC5CC3C[C@](C(N)=O)(C5)C4)C2)nc(C)n1` [Example 33, (R)-(trans-1-carbamoyl-4-adamantyl) 3-(2,6-dimethylpyrimidin-4-ylamino)pyrrolidine-1-carboxylate] the inhibition at 0.1 µM [1] was 78.6% and the IC50 was under 0.1 µM.
`N#Cc1cccnc1N[C@@H]1CCN(C(=O)O[C@H]2C3CC4CC2C[C@](C(N)=O)(C4)C3)C1` [Example 34, (R)-(trans-1-carbamoyl-4-adamantyl) 3-(3-cyanopyridin-2-ylamino)pyrrolidine-1-carboxylate] showed an inhibition at 0.1 µM [1] of 94.6% and an IC50 of under 0.1 µM.
For `N#Cc1ccc(N[C@@H]2CCN(C(=O)O[C@H]3C4CC5CC3C[C@](C(N)=O)(C5)C4)C2)nc1` [Example 35, (R)-(trans-1-carbamoyl-4-adamantyl) 3-(5-cyanopyridin-2-ylamino)pyrrolidine-1-carboxylate], the inhibition at 0.1 µM [1] was 101% and the IC50 was under 0.1 µM.
`NC(=O)[C@]12CC3CC(C1)[C@@H](OC(=O)N1CC[C@@H](Nc4nnc(C(F)(F)F)s4)C1)C(C3)C2` [Example 42, (R)-(trans-1-carbamoyl-4-adamantyl) 3-(5-(trifluoromethyl)-1,3,4-thiadiazol-2-ylamino)pyrrolidine-1-carboxylate] was tested, and the inhibition at 0.1 µM [1] was 79.3% and the IC50 was under 0.1 µM.
`CN(c1ccc(C(F)(F)F)cn1)C1CCN(C(=O)O[C@H]2C3CC4CC2C[C@](C(N)=O)(C4)C3)C1` (stereo partly drawn) [Example 43, (trans-1-carbamoyl-4-adamantyl) 3-(methyl(5-(trifluoromethyl)pyridin-2-yl)amino)pyrrolidine-1-carboxylate] gave an inhibition at 0.1 µM [1] of 102% and an IC50 of under 0.1 µM.
`CN(c1ncccc1C(F)(F)F)C1CCN(C(=O)O[C@H]2C3CC4CC2C[C@](C(N)=O)(C4)C3)C1` (stereo partly drawn) [Example 44, (trans-1-carbamoyl-4-adamantyl) 3-(methyl(3-(trifluoromethyl)pyridin-2-yl)amino)pyrrolidine-1-carboxylate] gave an inhibition at 0.1 µM [1] of 97.2% and an IC50 of under 0.1 µM.
`CN(c1cccc(C(F)(F)F)n1)C1CCN(C(=O)OC2C3CC4CC2CC(C(N)=O)(C4)C3)C1` (stereo not drawn) [Example 45, (trans-1-carbamoyl-4-adamantyl) 3-(methyl(6-(trifluoromethyl)pyridin-2-yl)amino)pyrrolidine-1-carboxylate] was tested, and the inhibition at 0.1 µM [1] was 97.7% and the IC50 was under 0.1 µM.
Work on `CC(C)OC(=O)N[C@@H]1CCN(C(=O)NC2C3CC4CC(C3)CC2C4)C1` (stereo partly drawn) [Example 49, (R)-isopropyl 1-((2-adamantyl)carbamoyl)pyrrolidin-3-ylcarbamate] yielded an inhibition at 0.111 µM [2] of 74.6% and an IC50 of under 0.1 µM.
For `CC(C)COC(=O)N[C@@H]1CCN(C(=O)NC2C3CC4CC(C3)CC2C4)C1` (stereo partly drawn) [Example 50, (R)-isobutyl 1-((2-adamantyl)carbamoyl)pyrrolidin-3-ylcarbamate], the inhibition at 0.111 µM [2] was 92.9% and the IC50 was under 0.1 µM.
Compound `CC(C)(C)OC(=O)N1CCCC12CCN(C(=O)NC1C3CC4CC(C3)CC1C4)C2` (stereo not shown) [Example 58, tert-butyl 7-(2-adamantylcarbamoyl)-1,7-diazaspiro[4.4]nonane-1-carboxylate] has an inhibition at 0.111 µM [2] of 94.3% and an IC50 of under 0.1 µM.
`CCOC(=O)C1(Nc2ccccc2)CCN(C(=O)NC2C3CC4CC(C3)CC2C4)CC1` (stereo not shown) [Example 59, Ethyl 1-(2-adamantylcarbamoyl)-4-(phenylamino)piperidine-4-carboxylate] gave an inhibition at 0.111 µM (read-out: Biological Test Example 2 Average % inhibition at 111 nm) of 47.5% and an IC50 of 0.1 to 1 µM.
Compound `CC(C)(C)OC(=O)NC1(c2ccccc2)CCN(C(=O)NC2C3CC4CC(C3)CC2C4)C1` (stereo not shown) [Example 60, tert-butyl 1-(2-adamantylcarbamoyl)-3-phenylpyrrolidin-3-ylcarbamate] has an inhibition at 0.111 µM [2] of 83.3% and an IC50 of under 0.1 µM.
Work on `N#Cc1ccc(N[C@@H]2CCN(C(=O)NC3C4CC5CC(C4)CC3C5)C2)nc1` (stereo partly drawn) [Example 61, (R)-3-(5-cyanopyridin-2-ylamino)-N-(2-adamantyl)pyrrolidine-1-carboxamide] yielded an inhibition at 0.1 µM (read-out: Biological Test Example 2 Average % inhibition at 100 nm) of 97.6% and an IC50 of under 0.1 µM.
Work on `NC(=O)C12CC3CC(C1)C(OC(=O)N1CC[C@@H](Nc4ncccc4F)C1)C(C3)C2` (stereo partly drawn) [Example 63, (R)-(trans-1-carbamoyl-4-adamantyl) 3-(3-fluoropyridin-2-ylamino)pyrrolidine-1-carboxylate] yielded an inhibition at 0.1 µM [1] of 98.4% and an IC50 of under 0.1 µM.
`N#Cc1ccc(N[C@H]2CCN(C(=O)O[C@H]3C4CC5CC3C[C@](C(N)=O)(C5)C4)C2)nc1` [Example 65, (S)-(trans-1-carbamoyl-4-adamantyl) 3-(5-cyanopyridin-2-ylamino)pyrrolidine-1-carboxylate] was tested, and the inhibition at 0.1 µM [1] was 97.1% and the IC50 was under 0.1 µM.
Work on `N#Cc1cccnc1N[C@H]1CCN(C(=O)O[C@H]2C3CC4CC2C[C@](C(N)=O)(C4)C3)C1` [Example 66, (S)-(trans-1-carbamoyl-4-adamantyl) 3-(3-cyanopyridin-2-ylamino)pyrrolidine-1-carboxylate] yielded an inhibition at 0.1 µM [1] of 95.5% and an IC50 of under 0.1 µM.
`CC1(Nc2ncccc2C#N)CCN(C(=O)O[C@H]2C3CC4CC2C[C@](C(N)=O)(C4)C3)C1` (stereo partly drawn) [Example 67, (trans-1-carbamoyl-4-adamantyl) 3-(3-cyanopyridin-2-ylamino)-3-methylpyrrolidine-1-carboxylate] was tested, and the inhibition at 0.1 µM [1] was 97% and the IC50 was under 0.1 µM.
Compound `N#Cc1cccnc1NC1CCN(C(=O)O[C@H]2C3CC4CC2C[C@](C(N)=O)(C4)C3)CC1` [Example 68, (1-carbamoyl-4-adamantyl) 4-(3-cyanopyridin-2-ylamino)piperidine-1-carboxylate] has an inhibition at 0.1 µM [1] of 90.7% and an IC50 of under 0.1 µM.
Work on `CC1(Nc2ccc(C#N)cn2)CCN(C(=O)O[C@H]2C3CC4CC2C[C@](C(N)=O)(C4)C3)C1` (stereo partly drawn) [Example 69, (trans-1-carbamoyl-4-adamantyl) 3-(5-cyanopyridin-2-ylamino)-3-methylpyrrolidine-1-carboxylate] yielded an inhibition at 0.1 µM [1] of 98.7% and an IC50 of under 0.1 µM.
`COC(=O)C12CC3CC(C1)C(OC(=O)N1CC[C@@H](Nc4ncccc4C#N)C1)C(C3)C2` (stereo partly drawn) [Example 70, (R)-(1-(methoxycarbonyl)-4-adamantyl) 3-(3-cyanopyridin-2-ylamino)pyrrolidine-1-carboxylate] gave an inhibition at 0.1 µM [1] of 78.4% and an IC50 of under 0.1 µM.
